Laboratory results published in US20040228906A1 (priority 2001, published 2004).
Read-outs that look alike come from different tables or passages of the source.

What was measured:
[1] = tested on: bladder overactivity induced by oxyhemoglobine; assay: Cystometry with wake rats damaged by oxyhemoglobin (urge incontinence model); type: in vivo, Sprague-Dawley rat
bladder function = conditions: rat model with rhythmic bladder contraction; cited from earlier work
[2] = cited from earlier work
[3] = cited from earlier work; remark: listed apart in the source
bladder or urethra = conditions: epidural application, 4 μg/kg (Batra) or 2 μg/kg (Drenger, dogs); cited from earlier work
[4] = after use of the substances, OxyHb 2.5 × 10^−4M, buprenorphine 0.005 mg/kg iv where given
[5] = before use of the substances, OxyHb 2.5 × 10^−4M, buprenorphine 0.005 mg/kg iv where given
[6] = change compared to the pre-basis

Q: For OxyHb, which “ICI inter-contraction interval, after (a)” value [1, 4] is on record?
A: The value was “a: 3.33 ± 0.18 min”.

Q: What about the “MP Micturition pressure, after (a)” value [1, 4] of the same molecule?
A: Its value is “a: 97 ± 5 cm H2O”.

Q: And the “TP threshold pressure, after (a)” value [1, 4]?
A: The value was “a: 9.84 ± 1.56 cm H2O”.

Q: And the “bladder capacity, after (a)” value [1, 4]?
A: The value was “a: 0.65 ± 0.06 ml”.

Q: And the “ICI inter-contraction interval, before (b)” value [1, 5]?
A: Its value is “b: 4.96 ± 0.33 min”.

Q: And the “MP Micturition pressure, before (b)” value [1, 5]?
A: Its value is “b: 59 ± 8 cm H2O”.

Q: And the “TP threshold pressure, before (b)” value [1, 5]?
A: Its value is “b: 8.72 ± 1.31 cm H2O”.

Q: What about the “bladder capacity, before (b)” value [1, 5] of the same molecule?
A: The value was “b: 0.92 ± 0.10 ml”.

Q: What about the “ICI inter-contraction interval, Diff.” value [1, 6] of the same molecule?
A: The value was “Diff.: −32.9%”.

Q: What about the “MP Micturition pressure, Diff.” value [1, 6] of the same molecule?
A: The value was “Dif.: +64.4%”.

Q: And the “TP threshold pressure, Diff.” value [1, 6]?
A: The value was “Diff.: +12.8%”.

Q: What about the “bladder capacity, Diff.” value [1, 6] of the same molecule?
A: Its value is “Diff.: −29.3%”.

Q: Which “effect on bladder function” value (bladder function) does the source give for `COc1cccc(C2(O)CCCCC2CN(C)C)c1` (stereo not shown) [tramadol] here?
A: The value was “positive effect”.

Q: Which results are given for “21-cyclopropyl-7-α-[(S)-1-hydroxy-1,2,2-trimethylpropyl]-6,14-endo-ethano-6,7,8,14-tetrahydrooripavine [buprenorphine]”?
A: Cmax ([2]; 0.4 mg sublingual dose): 0.50 ng/mL; Cmax ([2]; 0.8 mg sublingual dose): 1.04 ng/mL; plasma concentration ([3]; about 5 minutes after intravenous 0.3 mg): about 9 ng/ml; plasma concentration ([3]; about 3 hours after intramuscular 0.3-mg dose): about 0.4 ng/ml; time of mean peak plasma concentration ([3]; intravenous single dose of about 0.3 mg): ≤ 2 min; influence on the function of bladder or urethra (bladder or urethra): does not have a significant influence
